Data from patent publication US20100278921A1 (priority 2009, published 2010).
Where two headings read alike, the source gives them in different places.

Assays:
Solubility in water = format: physicochemical
Excerpt: It will be recognized that aqueous solubility of many compounds is pH dependent; in the case of such compounds the solubility of interest herein is at a physiologically relevant pH, for example a pH of about 1 to about 8.

[1] = Bioavailability of ABT-737 in a rat model; format: in vivo; conditions: regardless of formulation

Row | solubility (Solubility in water; pH 2, aqueous buffer, read-out: solubility in water at pH 2) [µg/mL] | solubility (Solubility in water; physiologically relevant pH, about 1 to about 8, read-out: solubility in water) [µg/mL] | Bioavailability [1] [%] | SMILES
1 | < 4 | < 10 | – | CC1(C)CCC(c2ccc(Cl)cc2)=C(CN2CCN(c3ccc(C(=O)NS(=O)(=O)c4ccc(N[C@H](CCN5CCOCC5)CSc5ccccc5)c(S(=O)(=O)C(F)(F)F)c4)cc3)CC2)C1 [ABT-263]
2 | – | – | ≤ 6 | CN(C)CC[C@H](CSc1ccccc1)Nc1ccc(S(=O)(=O)NC(=O)c2ccc(N3CCN(Cc4ccccc4-c4ccc(Cl)cc4)CC3)cc2)cc1[N+](=O)[O-] [ABT-737, N-(4-(4-((4′-chloro-(1,1′-biphenyl)-2-yl)methyl)piperazin-1-yl)benzoyl)-4-(((1R)-3-(dimethylamino)-1-((phenylsulfanyl)methyl)propyl)amino)-3-nitrobenzene-sulfonamide]
